Values quoted from earlier work, collected in US20210338693A1, “Gel Compositions for Transdermal Delivery to Maximize Drug Concentrations in the Stratum Corneum and Serum and Methods of Use Thereof” (Viramal Limited, priority 2016, published 2021).

Settings: in vivo

For `C[C@]12CC[C@H]3[C@@H](CCC4=CC(=O)CC[C@@]43C)[C@@H]1CC[C@@H]2O` [Testosterone], the half-life is given as 1.4 h.
